PubChem BioAssay (NCI)
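Step 1: Grow cells in 96-well plates. Step 2: Expose to compound for 48 hours at 5 concentrations. Step 3: Interpolate endpoints linearly; if unreached, use highest concentration. GI50 = concentration required for 50% inhibition of growth. At the TGI there is no net growth.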

Key:
Test in all cases: NCI-60 cell line screen, 48 h; in the data active = GI50 below about 0.43 µM; inactive = the rest
HCT-15 colon = test system: HCT-15 colon
NCI-H460 lung = test system: NCI-H460 lung
TK-10 renal = test system: TK-10 renal
NCI-H522 lung = test system: NCI-H522 lung
SK-MEL-28 melanoma = test system: SK-MEL-28 melanoma
HL-60(TB) leukemia = test system: HL-60(TB) leukemia
U251 CNS = test system: U251 CNS
NCI-H226 lung = test system: NCI-H226 lung
SF-539 CNS = test system: SF-539 CNS
A498 renal = test system: A498 renal
HS 578T breast = test system: HS 578T breast
PC-3 prostate = test system: PC-3 prostate
SK-MEL-5 melanoma = test system: SK-MEL-5 melanoma
COLO 205 colon = test system: COLO 205 colon
SK-MEL-2 melanoma = test system: SK-MEL-2 melanoma
SN12C renal = test system: SN12C renal
RXF 393 renal = test system: RXF 393 renal
HT29 colon = test system: HT29 colon
HOP-92 NSCLC = test system: HOP-92 NSCLC
SW-620 colon = test system: SW-620 colon
RPMI-8226 leukemia = test system: RPMI-8226 leukemia
K-562 leukemia = test system: K-562 leukemia
MALME-3M melanoma = test system: MALME-3M melanoma
IGROV1 ovarian = test system: IGROV1 ovarian
SNB-19 CNS = test system: SNB-19 CNS
KM12 colon = test system: KM12 colon
MDA-MB-435 = test system: MDA-MB-435
HOP-62 NSCLC = test system: HOP-62 NSCLC
MDA-MB-231 breast = test system: MDA-MB-231 breast
UACC-62 melanoma = test system: UACC-62 melanoma
OVCAR-8 ovarian = test system: OVCAR-8 ovarian
MOLT-4 leukemia = test system: MOLT-4 leukemia
NCI-H23 lung = test system: NCI-H23 lung
M14 melanoma = test system: M14 melanoma
ACHN renal = test system: ACHN renal
T-47D breast = test system: T-47D breast
SK-OV-3 ovarian = test system: SK-OV-3 ovarian
BT-549 breast = test system: BT-549 breast
OVCAR-3 ovarian = test system: OVCAR-3 ovarian
OVCAR-4 ovarian = test system: OVCAR-4 ovarian
HCC-2998 colon = test system: HCC-2998 colon
NCI/ADR-RES ovarian = test system: NCI/ADR-RES ovarian
786-0 renal = test system: 786-0 renal
MCF7 breast = test system: MCF7 breast
LOX IMVI melanoma = test system: LOX IMVI melanoma
OVCAR-5 ovarian = test system: OVCAR-5 ovarian
SNB-75 CNS = test system: SNB-75 CNS
SR leukemia = test system: SR leukemia
UO-31 renal = test system: UO-31 renal
DU-145 prostate = test system: DU-145 prostate
HCT-116 colon = test system: HCT-116 colon
CCRF-CEM leukemia = test system: CCRF-CEM leukemia
CAKI-1 renal = test system: CAKI-1 renal
SF-268 CNS = test system: SF-268 CNS

Clc1cc2c(cc1Cl)Oc1cc(Cl)c(Cl)cc1O2
active: GI50 (SNB-75 CNS) 304 nM | GI50 (UO-31 renal) 209 nM
> 625 nM: TGI (HCT-15 colon) | TGI (NCI-H460 lung) | TGI (TK-10 renal) | TGI (NCI-H522 lung) | TGI (SK-MEL-28 melanoma) | TGI (HL-60(TB) leukemia) | TGI (U251 CNS) | TGI (NCI-H226 lung) | TGI (SF-539 CNS) | TGI (A498 renal) | TGI (HS 578T breast) | TGI (PC-3 prostate) | TGI (SK-MEL-5 melanoma) | TGI (COLO 205 colon) | TGI (SK-MEL-2 melanoma) | TGI (SN12C renal) | TGI (RXF 393 renal) | TGI (HT29 colon) | TGI (HOP-92 NSCLC) | TGI (SW-620 colon) | TGI (RPMI-8226 leukemia) | TGI (K-562 leukemia) | TGI (MALME-3M melanoma) | TGI (IGROV1 ovarian) | TGI (SNB-19 CNS) | TGI (KM12 colon) | TGI (MDA-MB-435) | TGI (HOP-62 NSCLC) | TGI (MDA-MB-231 breast) | TGI (UACC-62 melanoma) | TGI (OVCAR-8 ovarian) | TGI (MOLT-4 leukemia) | TGI (NCI-H23 lung) | TGI (M14 melanoma) | TGI (ACHN renal) | TGI (T-47D breast) | TGI (SK-OV-3 ovarian) | TGI (BT-549 breast) | TGI (OVCAR-3 ovarian) | TGI (OVCAR-4 ovarian) | TGI (HCC-2998 colon) | TGI (NCI/ADR-RES ovarian) | TGI (786-0 renal) | TGI (MCF7 breast) | TGI (LOX IMVI melanoma) | TGI (OVCAR-5 ovarian) | TGI (SNB-75 CNS) | TGI (SR leukemia) | TGI (UO-31 renal) | TGI (DU-145 prostate) | TGI (HCT-116 colon) | TGI (CCRF-CEM leukemia) | TGI (CAKI-1 renal) | TGI (SF-268 CNS)
inactive: GI50 (HCT-15 colon) > 625 nM | GI50 (NCI-H460 lung) > 625 nM | GI50 (TK-10 renal) > 625 nM | GI50 (NCI-H522 lung) > 625 nM | GI50 (SK-MEL-28 melanoma) > 625 nM | GI50 (HL-60(TB) leukemia) > 625 nM | GI50 (U251 CNS) > 625 nM | GI50 (NCI-H226 lung) > 625 nM | GI50 (SF-539 CNS) > 625 nM | GI50 (A498 renal) > 625 nM | GI50 (HS 578T breast) > 625 nM | GI50 (PC-3 prostate) > 625 nM | GI50 (SK-MEL-5 melanoma) > 625 nM | GI50 (COLO 205 colon) > 625 nM | GI50 (SK-MEL-2 melanoma) > 625 nM | GI50 (SN12C renal) > 625 nM | GI50 (RXF 393 renal) > 625 nM | GI50 (HT29 colon) > 625 nM | GI50 (HOP-92 NSCLC) > 625 nM | GI50 (SW-620 colon) > 625 nM | GI50 (RPMI-8226 leukemia) > 625 nM | GI50 (K-562 leukemia) > 625 nM | GI50 (MALME-3M melanoma) > 625 nM | GI50 (IGROV1 ovarian) > 625 nM | GI50 (SNB-19 CNS) > 625 nM | GI50 (KM12 colon) > 625 nM | GI50 (MDA-MB-435) > 625 nM | GI50 (HOP-62 NSCLC) > 625 nM | GI50 (MDA-MB-231 breast) > 625 nM | GI50 (UACC-62 melanoma) > 625 nM | GI50 (OVCAR-8 ovarian) > 625 nM | GI50 (MOLT-4 leukemia) > 625 nM | GI50 (NCI-H23 lung) > 625 nM | GI50 (M14 melanoma) > 625 nM | GI50 (ACHN renal) > 625 nM | GI50 (T-47D breast) > 625 nM | GI50 (SK-OV-3 ovarian) > 625 nM | GI50 (BT-549 breast) > 625 nM | GI50 (OVCAR-3 ovarian) > 625 nM | GI50 (OVCAR-4 ovarian) > 625 nM | GI50 (HCC-2998 colon) > 625 nM | GI50 (NCI/ADR-RES ovarian) > 625 nM | GI50 (786-0 renal) > 625 nM | GI50 (MCF7 breast) > 625 nM | GI50 (LOX IMVI melanoma) > 625 nM | GI50 (OVCAR-5 ovarian) > 625 nM | GI50 (SR leukemia) > 625 nM | GI50 (DU-145 prostate) > 625 nM | GI50 (HCT-116 colon) > 625 nM | GI50 (CCRF-CEM leukemia) > 625 nM | GI50 (CAKI-1 renal) > 625 nM | GI50 (SF-268 CNS) > 625 nM
